Patent US8802700B2 (Vertex Pharmaceuticals Incorporated, priority 2010, dated 2014)

Target: T1, ΔF508-CFTR (Homo sapiens, UniProt P13569, DEL508-508)
T1 construct: expressed in transfected cells
Assay: Membrane potential optical assay (FRET voltage-sensor dyes, VIPR), identification of potentiator compounds
Format: cell-based
Settings: Table 3; assay not given
Method in brief: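 Potentiator screen measured membrane potential via FRET between CC2-DMPE donor and DiSBAC2(3), read on VIPR II. Compound went in with the first addition of chloride-free gluconate bath; cells were ΔF508-CFTR-expressing NIH3T3 mouse fibroblasts, temperature-corrected at 27 °C for 24 h.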

T1 sequence (P13569 with tags, fused parts or gaps DEL508-508): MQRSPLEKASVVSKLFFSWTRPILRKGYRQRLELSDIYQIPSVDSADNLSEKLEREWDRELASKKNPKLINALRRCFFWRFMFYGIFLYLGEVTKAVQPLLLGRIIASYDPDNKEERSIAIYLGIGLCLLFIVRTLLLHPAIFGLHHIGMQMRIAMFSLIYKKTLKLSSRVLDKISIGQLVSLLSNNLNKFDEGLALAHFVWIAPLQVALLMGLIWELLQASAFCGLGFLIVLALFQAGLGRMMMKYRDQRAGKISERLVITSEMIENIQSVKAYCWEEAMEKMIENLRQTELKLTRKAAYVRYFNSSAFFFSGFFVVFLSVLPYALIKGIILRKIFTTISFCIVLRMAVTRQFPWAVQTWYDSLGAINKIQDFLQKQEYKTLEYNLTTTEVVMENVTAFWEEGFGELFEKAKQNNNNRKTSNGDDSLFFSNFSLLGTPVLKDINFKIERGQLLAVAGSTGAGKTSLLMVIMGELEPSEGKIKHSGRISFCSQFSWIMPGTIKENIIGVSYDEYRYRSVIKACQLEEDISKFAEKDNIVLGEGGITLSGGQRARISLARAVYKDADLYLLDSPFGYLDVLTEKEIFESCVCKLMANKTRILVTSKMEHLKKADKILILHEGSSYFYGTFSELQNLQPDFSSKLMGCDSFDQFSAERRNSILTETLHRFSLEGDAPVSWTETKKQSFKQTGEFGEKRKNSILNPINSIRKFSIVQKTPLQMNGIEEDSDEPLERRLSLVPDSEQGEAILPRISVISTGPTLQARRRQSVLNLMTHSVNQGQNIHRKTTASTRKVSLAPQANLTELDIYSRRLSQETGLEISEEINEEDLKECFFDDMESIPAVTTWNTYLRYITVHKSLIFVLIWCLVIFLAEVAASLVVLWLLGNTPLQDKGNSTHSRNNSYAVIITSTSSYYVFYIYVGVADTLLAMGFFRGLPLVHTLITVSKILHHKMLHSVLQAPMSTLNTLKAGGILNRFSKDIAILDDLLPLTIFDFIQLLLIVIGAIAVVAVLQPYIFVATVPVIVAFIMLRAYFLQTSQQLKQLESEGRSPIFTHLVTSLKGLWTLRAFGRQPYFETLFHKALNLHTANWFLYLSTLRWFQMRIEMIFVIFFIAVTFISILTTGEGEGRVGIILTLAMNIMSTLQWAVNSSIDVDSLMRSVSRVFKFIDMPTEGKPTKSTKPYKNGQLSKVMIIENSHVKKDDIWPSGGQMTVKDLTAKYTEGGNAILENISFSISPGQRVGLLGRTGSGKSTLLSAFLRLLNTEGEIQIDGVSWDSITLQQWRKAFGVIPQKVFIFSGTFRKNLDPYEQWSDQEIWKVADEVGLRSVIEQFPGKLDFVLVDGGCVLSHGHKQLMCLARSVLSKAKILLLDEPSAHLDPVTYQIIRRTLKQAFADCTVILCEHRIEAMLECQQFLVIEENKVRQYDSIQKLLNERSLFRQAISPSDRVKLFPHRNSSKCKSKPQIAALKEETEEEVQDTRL

Structure (SMILES) | EC50
O=C(Nc1ccccc1-c1ccc2[nH]ccc2c1)c1c[nH]c2ccccc2c1=O [Compound 118, N-[2-(1H-indol-5-yl)phenyl]-4-oxo-1H-quinoline-3-carboxamide] | < 10 µM

Same assay, conditions: Table 3; assay not given; read-out: % Activity (% Efficacy, relative efficacy)

Structure (SMILES) | Emax
Cc1cccc2[nH]cc(C(=O)Nc3cc4[nH]ccc4cc3C(C)(C)C)c(=O)c12 [Compound 565, 5-methyl-4-oxo-N-(5-tert-butyl-1H-indol-6-yl)-1H-quinoline-3-carboxamide] | 25 to 100%
COc1cc2[nH]cc(C(=O)Nc3cc(O)c(C(C)(C)C)cc3C(C)(C)C)c(=O)c2cc1F [Compound 617, 6-fluoro-N-(5-hydroxy-2,4-ditert-butyl-phenyl)-7-methoxy-4-oxo-1H-quinoline-3-carboxamide] | > 100%
Cc1ccc2[nH]cc(C(=O)Nc3ccc(N4CCCC4C)cc3C(F)(F)F)c(=O)c2c1 (stereo not drawn) [Compound 503, 6-methyl-N-[4-(2-methylpyrrolidin-1-yl)-2-(trifluoromethyl)phenyl]-4-oxo-1H-quinoline-3-carboxamide] | 25 to 100%
CC(C)(C)c1cc(C(C)(C)C)c(NC(=O)c2c[nH]c3ccc(O)cc3c2=O)cc1O [Compound 702, 6-hydroxy-N-(5-hydroxy-2,4-ditert-butyl-phenyl)-4-oxo-1H-quinoline-3-carboxamide] | 25 to 100%
O=C(Nc1ccccc1-c1cccc(F)c1F)c1c[nH]c2ccccc2c1=O [Compound 285, N-[2-(2,3-difluorophenyl)phenyl]-4-oxo-1H-quinoline-3-carboxamide] | 25 to 100%
COc1nc2ccccc2c(OC)c1C(=O)Nc1cc(NC(=O)OC(C)(C)C)ccc1C(C)(C)C [Compound 39, [3-[(2,4-dimethoxy-3-quinolyl)carbonylamino]-4-tert-butyl-phenyl]aminoformic acid tert-butyl ester] | 25 to 100%
COc1cccc(-c2ccccc2NC(=O)c2c[nH]c3ccccc3c2=O)c1 [Compound 283, N-[2-(3-methoxyphenyl)phenyl]-4-oxo-1H-quinoline-3-carboxamide] | > 100%
CC1(c2cc(F)c(NC(=O)c3cnc4ccccc4c3O)cc2O)CCCCCCC1 [Compound 403, N-[2-fluoro-5-hydroxy-4-(1-methylcyclooctyl)-phenyl]-4-hydroxy-quinoline-3-carboxamide] | 25 to 100%
Cc1ccc2c(=O)c(C(=O)Nc3ccc(N4CCC[C@@H]4C)cc3C(F)(F)F)c[nH]c2c1 [Compound 607, (S)-7-methyl-N-(4-(2-methylpyrrolidin-1-yl)-2-(trifluoromethyl)phenyl)-4-oxo-1,4-dihydroquinoline-3-carboxamide] | 25 to 100%
COc1ccc(C(C)C)cc1-c1ccccc1NC(=O)c1c[nH]c2ccccc2c1=O [Compound 59, N-[2-(5-isopropyl-2-methoxy-phenyl)phenyl]-4-oxo-1H-quinoline-3-carboxamide] | > 100%
COc1ncc(-c2ccccc2NC(=O)c2c[nH]c3ccccc3c2=O)c(OC)n1 [Compound 97, N-[2-(2,4-dimethoxypyrimidin-5-yl)phenyl]-4-oxo-1H-quinoline-3-carboxamide] | 25 to 100%
O=C(Nc1cc(OCc2ccccc2)c(C2CCCCC2)cc1C(F)(F)F)c1c[nH]c2ccccc2c1=O [Compound 654, N-[5-benzyloxy-4-cyclohexyl-2-(trifluoromethyl)phenyl]-4-oxo-1H-quinoline-3-carboxamide] | 25 to 100%
CCOc1cccc2c(=O)c(C(=O)Nc3ccc(C(C)C)cc3C(F)(F)F)c[nH]c12 [Compound 517, 8-ethoxy-N-[4-isopropyl-2-(trifluoromethyl)phenyl]-4-oxo-1H-quinoline-3-carboxamide] | < 25%
O=C(Nc1ccccc1-c1cccc(Cl)c1Cl)c1c[nH]c2ccccc2c1=O [Compound 171, N-[2-(2,3-dichlorophenyl)phenyl]-4-oxo-1H-quinoline-3-carboxamide] | 25 to 100%
O=C(Nc1ccccc1N1CCN(C(=O)c2ccccc2)CC1)c1c[nH]c2ccccc2c1=O [Compound 321, N-[2-(4-benzoylpiperazin-1-yl)phenyl]-4-oxo-1H-quinoline-3-carboxamide] | 25 to 100%
CC(C)(C)OC(=O)Nc1ccc(C(C)(C)C)c(NC(=O)c2c[nH]c3ccccc3c2=O)c1 [Compound 353, [3-[(4-oxo-1H-quinolin-3-yl)carbonylamino]-4-tert-butyl-phenyl]aminoformic acid tert-butyl ester] | 25 to 100%
Cc1cccc2[nH]cc(C(=O)Nc3ccc(N4CCC[C@@H]4C)nc3C(F)(F)F)c(=O)c12 [Compound 581, (S)-5-methyl-N-(6-(2-methylpyrrolidin-1-yl)-2-(trifluoromethyl)pyridin-3-yl)-4-oxo-1,4-dihydroquinoline-3-carboxamide] | 25 to 100%
COC(=O)c1cccc(-c2cc(C(C)(C)C)c(O)cc2NC(=O)c2c[nH]c3ccccc3c2=O)c1 [Compound 231, 3-[4-hydroxy-2-[(4-oxo-1H-quinolin-3-yl)carbonylamino]-5-tert-butyl-phenyl]benzoic acid methyl ester] | 25 to 100%
CC(C)(C)c1cc2cc[nH]c2cc1NC(=O)c1c[nH]c2cccc(O)c2c1=O [Compound 500, 5-hydroxy-4-oxo-N-(5-tert-butyl-1H-indol-6-yl)-1H-quinoline-3-carboxamide] | 25 to 100%
O=C(Nc1ccc2cc(C(F)(F)F)[nH]c2c1)c1c[nH]c2cccc(O)c2c1=O [Compound 693, 5-hydroxy-4-oxo-N-[2-(trifluoromethyl)-1H-indol-6-yl]-1H-quinoline-3-carboxamide] | 25 to 100%

Other lines, results leading:

Emax | Structure (SMILES)
25 to 100% | CCOC(=O)Nc1cc(NC(=O)c2c[nH]c3ccccc3c2=O)ccc1C [Compound 141, [2-methyl-5-[(4-oxo-1H-quinolin-3-yl)carbonylamino]phenyl]aminoformic acid ethyl ester]
< 25% | O=C(Nc1ccc2[nH]nnc2c1)c1c[nH]c2ccccc2c1=O [Compound 256, N-(1H-benzotriazol-5-yl)-4-oxo-1H-quinoline-3-carboxamide]
< 25% | O=C(Nc1ccc2nc[nH]c2c1)c1c[nH]c2ccccc2c1=O [Compound 414, N-(3H-benzoimidazol-5-yl)-4-oxo-1H-quinoline-3-carboxamide]
25 to 100% | CCCc1ccc(N(C)C)cc1NC(=O)c1c[nH]c2ccccc2c1=O [Compound 98, N-(5-dimethylamino-2-propyl-phenyl)-4-oxo-1H-quinoline-3-carboxamide]
25 to 100% | O=C(Nc1cc(O)cc(C(F)(F)F)c1)c1c[nH]c2ccccc2c1=O [Compound 563, N-[3-hydroxy-5-(trifluoromethyl)phenyl]-4-oxo-1H-quinoline-3-carboxamide]
< 25% | O=C(Nc1ccccc1-c1nc2ccccc2[nH]1)c1c[nH]c2ccccc2c1=O [Compound 227, N-[2-(3H-benzoimidazol-2-yl)phenyl]-4-oxo-1H-quinoline-3-carboxamide]
< 25% | NC(=O)c1cccc(NC(=O)c2c[nH]c3ccccc3c2=O)c1 [Compound 179, N-(3-carbamoylphenyl)-4-oxo-1H-quinoline-3-carboxamide]
25 to 100% | CCc1cccc(C(C)CC)c1NC(=O)c1c[nH]c2ccccc2c1=O (stereo not drawn) [Compound 322, N-(2-ethyl-6-sec-butyl-phenyl)-4-oxo-1H-quinoline-3-carboxamide]
25 to 100% | Nc1cc(NC(=O)c2c[nH]c3ccccc3c2=O)ccc1OC(F)(F)F [Compound 58, N-[3-amino-4-(trifluoromethoxy)phenyl]-4-oxo-1H-quinoline-3-carboxamide]
25 to 100% | O=C(Nc1cc(O)c(Cl)cc1Cl)c1c[nH]c2ccccc2c1=O [Compound 608, N-(2,4-dichloro-5-hydroxy-phenyl)-4-oxo-1H-quinoline-3-carboxamide]
25 to 100% | O=C(Nc1ccc(F)cc1)c1c[nH]c2ccccc2c1=O [Compound 198, N-(4-fluorophenyl)-4-oxo-1H-quinoline-3-carboxamide]
25 to 100% | O=C(Nc1ccc2c(c1)OC(F)(F)C(F)(F)O2)c1c[nH]c2ccccc2c1=O [Compound 440, N-(2,2,3,3-tetrafluoro-2,3-dihydrobenzo[b][1,4]dioxin-6-yl)-1,4-dihydro-4-oxoquinoline-3-carboxamide]
25 to 100% | CCOC(=O)Nc1ccc(C(C)C)c(NC(=O)c2c[nH]c3ccccc3c2=O)c1 [Compound 269, [4-isopropyl-3-[(4-oxo-1H-quinolin-3-yl)carbonylamino]phenyl]aminoformic acid ethyl ester]
25 to 100% | O=C(Nc1ccc2c(c1)CCCC2)c1c[nH]c2ccccc2c1=O [Compound 375, 1,4-dihydro-N-(1,2,3,4-tetrahydronaphthalen-6-yl)-4-oxoquinoline-3-carboxamide]
25 to 100% | O=C(Nc1ccccc1-c1ccc2[nH]ccc2c1)c1c[nH]c2ccccc2c1=O [Compound 118, N-[2-(1H-indol-5-yl)phenyl]-4-oxo-1H-quinoline-3-carboxamide]
25 to 100% | CC(=O)Nc1cc(NC(=O)c2c[nH]c3ccccc3c2=O)ccc1C [Compound 248, N-(3-Acetylamino-4-methyl-phenyl)-4-oxo-1H-quinoline-3-carboxamide]
< 25% | NS(=O)(=O)c1ccc(NC(=O)c2c[nH]c3ccccc3c2=O)cc1 [Compound 165, 4-oxo-N-(4-sulfamoylphenyl)-1H-quinoline-3-carboxamide]
25 to 100% | CC(C)c1ccc(NC(=O)c2c[nH]c3ccccc3c2=O)cn1 [Compound 235, N-(6-isopropyl-3-pyridyl)-4-oxo-1H-quinoline-3-carboxamide]
25 to 100% | O=C(Nc1ccccc1-c1cc2ccccc2[nH]1)c1c[nH]c2ccccc2c1=O [Compound 38, N-[2-(1H-indol-2-yl)phenyl]-4-oxo-1H-quinoline-3-carboxamide]
25 to 100% | CC(=O)c1ccccc1NC(=O)c1c[nH]c2ccccc2c1=O [Compound 365, N-(2-acetylphenyl)-4-oxo-1H-quinoline-3-carboxamide]
< 25% | N#Cc1ccc(NC(=O)c2c[nH]c3ccccc3c2=O)cc1 [Compound 194, N-(4-cyanophenyl)-4-oxo-1H-quinoline-3-carboxamide]
